For 18 molecules, T/C results are on record in PubChem BioAssay AID248 (DTP/NCI, 2004).

Where “and” joins values, the source holds several entries; their conditions need not be identical. Equal entries are not always repeated. Toxic doses and inconclusive results are not listed.

This experiment relates to L1210 leukemia ip in BDF1 mice, survival T/C. The experiment is described as follows: NCI In Vivo Anticancer Drug Screen. Data for tumor model L1210 Leukemia (intraperitoneal) in B6D2F1 (BDF1) mice. As to conditions: endpoint: mean survival time, higher = longer survival. A digest of the protocol:
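Read-out is survival time, reported as the treated-group measurement over the vehicle-control measurement.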

Where [1] appears, read: dose: 100.0 mg/kg/injection, schedule: Q04DX003 (ip), vehicle: saline with Tween-80.
Where [2] appears, read: dose: 100.0 mg/kg/injection, schedule: Q01DX001 (ip), vehicle: saline.
[3] abbreviates: dose: 200.0 mg/kg/injection, schedule: Q01DX001 (ip), vehicle: saline.
Where [4] appears, read: dose: 100.0 mg/kg/injection, schedule: Q04DX002 (ip), vehicle: Klucel (hydroxypropylcellulose) (HPC).
Setting [5] is: dose: 200.0 mg/kg/injection, schedule: Q04DX002 (ip), vehicle: Klucel (hydroxypropylcellulose) (HPC).
Where [6] appears, read: dose: 400.0 mg/kg/injection, schedule: Q04DX002 (ip), vehicle: Klucel (hydroxypropylcellulose) (HPC).

With `CC1(C)NC(=O)N(Cc2ccccc2)C1=O`, the T/C reads like this: (dose: 100.0 mg/kg/injection, schedule: Q01DX009 (ip), vehicle: Klucel (hydroxypropylcellulose) (HPC)) 94 % of control; under setting [1], 98 % of control; (dose: 200.0 mg/kg/injection, schedule: Q01DX009 (ip), vehicle: Klucel (hydroxypropylcellulose) (HPC)) 97 % of control; (dose: 200.0 mg/kg/injection, schedule: Q04DX003 (ip), vehicle: saline with Tween-80) 110 % of control; (dose: 400.0 mg/kg/injection, schedule: Q01DX009 (ip), vehicle: Klucel (hydroxypropylcellulose) (HPC)) 100 % of control; (dose: 400.0 mg/kg/injection, schedule: Q04DX003 (ip), vehicle: saline with Tween-80) 105 % of control.

Consider `O=C(O)COC1CCC(Cl)CC1` (stereo not drawn), for which the T/C by setting is: (dose: 100.0 mg/kg/injection, schedule: Q01DX009 (ip), vehicle: saline with Tween-80) 106 % of control; (dose: 100.0 mg/kg/injection, schedule: Q04DX003 (ip), vehicle: acetone) 101 % of control; (dose: 200.0 mg/kg/injection, schedule: Q01DX009 (ip), vehicle: saline with Tween-80) 94 % of control; (dose: 200.0 mg/kg/injection, schedule: Q04DX003 (ip), vehicle: acetone) 95 % of control; (dose: 400.0 mg/kg/injection, schedule: Q01DX009 (ip), vehicle: saline with Tween-80) 96 % of control; (dose: 400.0 mg/kg/injection, schedule: Q04DX003 (ip), vehicle: acetone) 91 % of control.

For the molecule `COc1cccc2c1C(=O)c1c(O)c3c(c(O)c1C2=O)C[C@@](O)(/C(C)=N\NC(=O)CO)C[C@@H]3OC1CC(N)C(O)C(C)O1` (stereo partly drawn), the T/C was 119 % of control (dose: 0.88 mg/kg/injection, schedule: Q04DX003 (ip), vehicle: saline); 124 % of control (dose: 1.33 mg/kg/injection, schedule: Q04DX003 (ip), vehicle: saline); 120 % of control (dose: 3.0 mg/kg/injection, schedule: Q04DX003 (ip), vehicle: saline); 122 % of control (dose: 3.5 mg/kg/injection, schedule: Q01DX009 (ip), vehicle: saline); 105 % of control (dose: 6.25 mg/kg/injection, schedule: Q01DX009 (ip), vehicle: saline); 123 % of control (dose: 7.0 mg/kg/injection, schedule: Q01DX009 (ip), vehicle: saline). Moreover, the T/C by setting is: (dose: 12.5 mg/kg/injection, schedule: Q01DX009 (ip), vehicle: saline) 116 % of control; (dose: 14.0 mg/kg/injection, schedule: Q01DX009 (ip), vehicle: saline) 95 % of control and 99 % of control; (dose: 14.0 mg/kg/injection, schedule: Q04DX003 (ip), vehicle: saline) 108 % of control; (dose: 16.0 mg/kg/injection, schedule: Q04DX003 (ip), vehicle: saline) 112 % of control; (dose: 25.0 mg/kg/injection, schedule: Q04DX003 (ip), vehicle: saline) 102 % of control; (dose: 32.0 mg/kg/injection, schedule: Q04DX003 (ip), vehicle: saline) 111 % of control. For the same molecule, the T/C (dose: 50.0 mg/kg/injection, schedule: Q04DX003 (ip), vehicle: saline) was 91 % of control.

As to `CCCCSC(=N)N`, the T/C under setting [2] is 94 % of control.

As to `CN(C)CCSCC(OC(=O)c1ccccc1)c1ccccc1` (stereo not drawn), the T/C under setting [1] was 94 % of control.

As for `O=[N+]([O-])c1cccc(CS(=O)(=O)c2ccccc2)c1-c1c(CS(=O)(=O)c2ccccc2)cccc1[N+](=O)[O-]`, the T/C is, setting by setting: (dose: 100.0 mg/kg/injection, schedule: Q04DX003 (ip), vehicle: saline sonified) 101 % of control; (dose: 200.0 mg/kg/injection, schedule: Q04DX003 (ip), vehicle: saline sonified) 95 % of control; (dose: 400.0 mg/kg/injection, schedule: Q04DX003 (ip), vehicle: saline sonified) 94 % of control.

As to `NCc1ccc(NC(=O)c2ccc(C(=O)Nc3ccc(CN)cc3)c(N)c2)cc1`, the T/C reads like this: (dose: 21.0 mg/kg/injection, schedule: Q01DX Z (ip), vehicle: water) 100 % of control; (dose: 42.0 mg/kg/injection, schedule: Q01DX Z (ip), vehicle: water) 98 % of control.

As for `NNc1c2ccccc2nc2ccccc12`, the T/C is 103 % of control (dose: 0.5 mg/kg/injection, schedule: Q04DX003 (ip), vehicle: Klucel (hydroxypropylcellulose) (HPC)); 100 % of control (dose: 1.0 mg/kg/injection, schedule: Q04DX003 (ip), vehicle: Klucel (hydroxypropylcellulose) (HPC)); 95 % of control (dose: 2.0 mg/kg/injection, schedule: Q04DX003 (ip), vehicle: Klucel (hydroxypropylcellulose) (HPC)).

For the molecule `O=c1c(O)c(-c2ccc(Cl)cc2)oc2cc(O)ccc12`, the T/C is 101 % of control (dose: 100.0 mg/kg/injection, schedule: Q01DX001 (ip), vehicle: other); 101 % of control (dose: 200.0 mg/kg/injection, schedule: Q01DX001 (ip), vehicle: other); 93 % of control (dose: 400.0 mg/kg/injection, schedule: Q01DX001 (ip), vehicle: other).

For `O=Cc1cc2ccccc2[nH]1`, the T/C is 105 % of control (dose: 100.0 mg/kg/injection, schedule: Q04DX002 (ip), vehicle: saline with Tween-80); 102 % of control (dose: 200.0 mg/kg/injection, schedule: Q04DX002 (ip), vehicle: saline with Tween-80); 102 % of control (dose: 400.0 mg/kg/injection, schedule: Q04DX002 (ip), vehicle: saline with Tween-80).

Take `CC(C)(C)OC(=O)CC#N`: the T/C is 97 % of control (dose: 75.0 mg/kg/injection, schedule: Q04DX003 (ip), vehicle: saline); 97 % of control under setting [2]; 94 % of control (dose: 150.0 mg/kg/injection, schedule: Q04DX003 (ip), vehicle: saline); 101 % of control under setting [3]; 100 % of control (dose: 300.0 mg/kg/injection, schedule: Q04DX003 (ip), vehicle: saline).

For the molecule `CCCN=C(N)c1ccc(NC(=O)c2ccc(C(=O)Nc3ccc(C(N)=NCCC)cc3)c(Cl)c2)cc1`, the T/C was 98 % of control (dose: 1.25 mg/kg/injection, schedule: Q01DX Z (ip), vehicle: water); 101 % of control (dose: 2.5 mg/kg/injection, schedule: Q01DX Z (ip), vehicle: water); 155 % of control (dose: 6.5 mg/kg/injection, schedule: Q01DX Z (ip), vehicle: carboxymethylcellulose (CMC)); 121 % of control (dose: 13.0 mg/kg/injection, schedule: Q01DX Z (ip), vehicle: carboxymethylcellulose (CMC)); 104 % of control (dose: 62.0 mg/kg/injection, schedule: Q01DX Z (oral), vehicle: water); 110 % of control (dose: 125.0 mg/kg/injection, schedule: Q01DX Z (oral), vehicle: water). Moreover, the T/C was 104 % of control (dose: 250.0 mg/kg/injection, schedule: Q01DX Z (oral), vehicle: water) and 104 % of control (dose: 500.0 mg/kg/injection, schedule: Q01DX Z (oral), vehicle: water).

For the molecule `CC(=O)Nc1ccc2c(c1)-c1ccc(F)cc1C2=O`, the T/C was 96 % of control (dose: 100.0 mg/kg/injection, schedule: Q01DX001 (ip), vehicle: carboxymethylcellulose (CMC)); 103 % of control (dose: 200.0 mg/kg/injection, schedule: Q01DX001 (ip), vehicle: carboxymethylcellulose (CMC)); 89 % of control (dose: 400.0 mg/kg/injection, schedule: Q01DX001 (ip), vehicle: carboxymethylcellulose (CMC)).

With `CC1=NN(c2ccc(S(=O)(=O)O)cc2)/C(=N/N=C(N)N)C1`, the T/C reads like this: (dose: 15.0 mg/kg/injection, schedule: Q01DX Z (ip), vehicle: carboxymethylcellulose (CMC)) 96 % of control; (dose: 30.0 mg/kg/injection, schedule: Q01DX Z (ip), vehicle: carboxymethylcellulose (CMC)) 96 % of control; (dose: 60.0 mg/kg/injection, schedule: Q01DX Z (ip), vehicle: carboxymethylcellulose (CMC)) 97 % of control and 100 % of control; (dose: 120.0 mg/kg/injection, schedule: Q01DX Z (ip), vehicle: carboxymethylcellulose (CMC)) 100 % of control and 102 % of control; (dose: 240.0 mg/kg/injection, schedule: Q01DX Z (ip), vehicle: carboxymethylcellulose (CMC)) 101 % of control; (dose: 480.0 mg/kg/injection, schedule: Q01DX Z (ip), vehicle: carboxymethylcellulose (CMC)) 97 % of control.

As for `CC1C(O)CN1C(C)(C)C` (stereo not drawn), the T/C reads like this: under setting [2], 105 % of control; under setting [3], 106 % of control; (dose: 400.0 mg/kg/injection, schedule: Q01DX001 (ip), vehicle: saline) 108 % of control.

`CCCS(=O)(=O)N1CCCC(C)C1` (stereo not drawn): the T/C is 94 % of control under setting [4], 97 % of control under setting [5] and 97 % of control under setting [6].

As for `CCCCCCCCCCCCCCOc1ccc(F)cc1F`, the T/C is 111 % of control under setting [4], 107 % of control under setting [5] and 96 % of control under setting [6].

On to `CN(C)CCCN1CCC2(CC[Si](C)(C)CC2)C1`, for which the T/C under setting [2] is 94 % of control.
